In test [1] the target is purified recombinant human AMPK (α1β1γ1) (Homo sapiens, UniProt P54619+Q13131+Q9Y478). Kind of test: radiometric [33P]-ATP kinase activity assay, AMPK. The format is biochemical. The following applies: for IC50: 10 μM [33P]-ATP; for EC50: concentration axis Log(M).
Test [2] concerns the target purified recombinant human AMPK (α1β1γ1) (Homo sapiens, UniProt Q13131). Kind of test: radiometric [33P]-ATP kinase activity assay, AMPK. In kind it is biochemical. The settings on record: for inhibition of AMPK activity (in words): up to 10 μM; for Hill Slope: AMPK curve fit, kinase profiling report; for HillSlope (GraphPad Prism best-fit, AMPK) / LogEC50 (GraphPad Prism best-fit, AMPK): sigmoidal dose-response variable slope; for LogEC50 (GraphPad Prism best-fit, AMPK): concentration axis Log(M); for % Activity (enzyme activity relative to DMSO controls): AMPK.

Test [3] deals with purified recombinant human GSK3β (Homo sapiens, UniProt P49841). Put plainly: radiometric [33P]-ATP kinase activity assay, GSK3β. The settings on record: for Hill Slope: GSK3β curve fit, kinase profiling report; for HillSlope (GraphPad Prism best-fit, GSK3β) / LogEC50 (GraphPad Prism best-fit, GSK3β): sigmoidal dose-response variable slope.
In a further test the test system is AMPK. Also noted: method as in PMID 23410232. The following applies: at 10 μM; cited from earlier work.
For a further test, the system named is GSK3β. Also noted: method as in PMID 23410232. The settings on record: at 10 μM; cited from earlier work.
Another test concerns cellular AMPK activity. The settings on record: cited from earlier work.
[4] abbreviates: 10-dose singlet, 3-fold dilutions from 10 μM, read-out: AMPK IC50.

Molecules are shown by their SMILES. Read-outs that look alike come from different tables or passages of the source. A value given as a limit tells only on which side of the number the result lay.

Consider 13 compounds from PMC12679472, “The structural requirements of 3,5-substituted oxindoles that determine selective AMPK or GSK3β inhibition” (RSC Medicinal Chemistry, 2025).

What is called EC50 is the midpoint of the concentration-response curve.

Chain of purified recombinant human AMPK (α1β1γ1) (Homo sapiens, UniProt Q13131) (Q13131 whole entry): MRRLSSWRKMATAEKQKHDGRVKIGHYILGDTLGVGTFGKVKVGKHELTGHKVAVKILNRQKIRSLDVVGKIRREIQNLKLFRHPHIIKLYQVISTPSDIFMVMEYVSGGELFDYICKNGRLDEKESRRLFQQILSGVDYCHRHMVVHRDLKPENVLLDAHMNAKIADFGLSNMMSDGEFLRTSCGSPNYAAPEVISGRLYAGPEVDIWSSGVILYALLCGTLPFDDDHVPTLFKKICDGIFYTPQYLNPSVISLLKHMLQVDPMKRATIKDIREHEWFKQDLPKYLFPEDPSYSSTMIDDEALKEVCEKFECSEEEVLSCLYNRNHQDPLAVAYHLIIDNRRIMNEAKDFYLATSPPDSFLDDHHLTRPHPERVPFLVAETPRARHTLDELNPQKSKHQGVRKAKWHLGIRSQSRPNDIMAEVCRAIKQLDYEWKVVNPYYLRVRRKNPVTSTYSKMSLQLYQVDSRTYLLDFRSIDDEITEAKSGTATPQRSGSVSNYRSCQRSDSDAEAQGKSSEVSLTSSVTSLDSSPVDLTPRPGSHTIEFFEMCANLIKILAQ
Chain of purified recombinant human AMPK (α1β1γ1) (Homo sapiens, UniProt Q13131) (Q9Y478 whole entry partner): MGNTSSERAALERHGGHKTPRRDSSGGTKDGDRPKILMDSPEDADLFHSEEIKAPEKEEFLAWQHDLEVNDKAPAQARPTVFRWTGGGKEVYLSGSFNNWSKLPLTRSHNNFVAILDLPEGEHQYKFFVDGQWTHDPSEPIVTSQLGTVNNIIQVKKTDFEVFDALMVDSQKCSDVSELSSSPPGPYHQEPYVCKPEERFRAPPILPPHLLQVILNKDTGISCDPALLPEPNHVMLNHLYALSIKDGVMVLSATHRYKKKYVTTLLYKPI
Chain of purified recombinant human AMPK (α1β1γ1) (Homo sapiens, UniProt Q13131) (P54619 whole entry partner): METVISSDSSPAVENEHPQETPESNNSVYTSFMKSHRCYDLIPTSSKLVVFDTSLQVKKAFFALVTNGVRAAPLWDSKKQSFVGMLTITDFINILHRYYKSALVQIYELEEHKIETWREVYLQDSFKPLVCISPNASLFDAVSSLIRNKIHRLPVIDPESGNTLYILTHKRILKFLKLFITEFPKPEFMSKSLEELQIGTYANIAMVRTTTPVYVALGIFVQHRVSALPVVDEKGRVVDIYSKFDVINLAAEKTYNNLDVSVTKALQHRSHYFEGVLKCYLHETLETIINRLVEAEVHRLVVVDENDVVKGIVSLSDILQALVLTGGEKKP
Chain of purified recombinant human AMPK (α1β1γ1) (Homo sapiens, UniProt P54619+Q13131+Q9Y478) (Q13131 whole entry): as the sequence (Q13131 whole entry) above
Chain of purified recombinant human AMPK (α1β1γ1) (Homo sapiens, UniProt P54619+Q13131+Q9Y478) (Q9Y478 whole entry partner): as the sequence (Q9Y478 whole entry partner) above
Chain of purified recombinant human AMPK (α1β1γ1) (Homo sapiens, UniProt P54619+Q13131+Q9Y478) (P54619 whole entry partner): as the sequence (P54619 whole entry partner) above
Chain of purified recombinant human GSK3β (P49841 whole entry): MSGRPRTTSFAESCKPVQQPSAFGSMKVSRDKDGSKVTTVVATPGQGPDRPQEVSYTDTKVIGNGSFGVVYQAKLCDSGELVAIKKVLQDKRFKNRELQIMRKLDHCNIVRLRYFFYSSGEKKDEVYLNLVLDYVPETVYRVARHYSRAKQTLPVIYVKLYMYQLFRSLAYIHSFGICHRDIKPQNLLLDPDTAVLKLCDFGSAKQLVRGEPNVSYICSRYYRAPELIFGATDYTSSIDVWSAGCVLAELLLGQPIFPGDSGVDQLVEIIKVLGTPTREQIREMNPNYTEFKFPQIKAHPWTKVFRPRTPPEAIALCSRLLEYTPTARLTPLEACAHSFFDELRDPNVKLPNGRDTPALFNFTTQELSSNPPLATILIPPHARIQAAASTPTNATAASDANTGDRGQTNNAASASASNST

In the case of `N#CCCc1ccc2c(c1)C(=Cc1ccc(CN3CCOCC3)cc1)C(=O)N2` (mixture of isomers) [Compound 7, (E/Z)-5-(2-Cyanoethyl)-3-(4-(morpholinomethyl)benzylidene)oxindole], the results for the IC50 in test [1] (setting [4]) and in test [3] were > 1e-05 M and > 10 µM, respectively. Besides, the “inhibition of AMPK activity (in words)” value in test [2] (10 μM [33P]-ATP) was “did not demonstrate AMPK inhibition”.

Regarding `CN1CCN(Cc2ccc(C=C3C(=O)Nc4ccc(CCC#N)cc43)cc2)CC1` (mixture of isomers) [Compound 8, (E/Z)-5-(2-Cyanoethyl)-3-(4-((4-methylpiperazin-1-yl)methyl)benzylidene)oxindole], the IC50 in test [1] (setting [4]) was > 1e-05 M; in test [3], > 10 µM. In test [2] (10 μM [33P]-ATP), the “inhibition of AMPK activity (in words)” value is “did not demonstrate AMPK inhibition”.

With `N#Cc1ccc2c(c1)C(=Cc1ccc(CN3CCOCC3)cc1)C(=O)N2` (mixture of isomers) [Compound 11, (E/Z)-5-Cyano-3-(4-(morpholinomethyl)benzylidene)oxindole], the IC50 in test [1] (setting [4]) was > 1e-05 M. In addition, in test [2] (10 μM [33P]-ATP), the “inhibition of AMPK activity (in words)” value is on record as “did not demonstrate AMPK inhibition”. Moreover, in test [3], the EC50 came to 3.37 µM; the IC50 was determined as 3.37 µM; the “Hill Slope” value is listed as -0.95; the “HillSlope (GraphPad Prism best-fit, GSK3β)” value is -0.9491. In addition, the “LogEC50 (GraphPad Prism best-fit, GSK3β)” value in test [3] is listed as -5.472.

In the case of `CN1CCN(Cc2ccc(C=C3C(=O)Nc4ccc(C#N)cc43)cc2)CC1` (mixture of isomers) [Compound 12, (E/Z)-5-Cyano-3-(4-((4-methylpiperazin-1-yl)methyl)benzylidene)oxindole], the IC50 in test [1] (setting [4]) was > 1e-05 M. Also, in test [2] (10 μM [33P]-ATP), the “inhibition of AMPK activity (in words)” value is recorded as “did not demonstrate AMPK inhibition”. In addition, in test [3], the concentration giving a half-maximal response (EC50) came out at 8.29 µM; the IC50 amounted to 8.29 µM; the “Hill Slope” value is -0.95; the “HillSlope (GraphPad Prism best-fit, GSK3β)” value is reported as -0.9519. Further, the “LogEC50 (GraphPad Prism best-fit, GSK3β)” value in test [3] is on record as -5.082.

Turning to `N#Cc1ccc2[nH]c(O)c(-c3ccc(CN4CCOCC4)cn3)c2c1` [AZD1080], the “inhibition of AMPK kinase activity” value in the test with AMPK is “more than 50%”. In the test on GSK3β, the “inhibition of GSK3β kinase activity” value is “more than 50%”.

For the compound `O=C1Nc2ccc(CCN3CCCCC3)cc2/C1=C/c1ccc(CN2CCOCC2)cc1` [Compound 9, (Z)-5-(2-(Piperidin-1-yl)ethyl)-3-(4-(morpholinomethyl)benzylidene)oxindole], the IC50 was > 1e-05 M in test [1] (setting [4]) and > 10 µM in test [3].

For `CN1CCN(Cc2ccc(/C=C3\C(=O)Nc4ccc(CCN5CCCCC5)cc43)cc2)CC1` [Compound 10, (Z)-5-(2-(Piperidin-1-yl)ethyl)-3-(4-((4-methylpiperazin-1-yl)methyl)benzylidene)oxindole], the IC50 in test [1] (setting [4]) was > 1e-05 M; in test [3] it was > 10 µM.

On to `N#Cc1ccc2c(c1)/C(=C/c1cc(CN3CCOCC3)c[nH]1)C(=O)N2` [Compound 13, (Z)-5-Cyano-3-((4-(morpholinomethyl)-1H-pyrrol-2-yl)methylene)oxindole], for which the EC50 in test [1] (sigmoidal fit, extrapolated beyond 10 μM, read-out: EC50 (GraphPad Prism best-fit, % activity against AMPK), beyond top dose) was 1.87e-05 M. Besides, the IC50 in test [1] (supplement kinase profiling report, read-out: IC50 (M) AMPK(A1/B1/G1)) was > 1e-05 M. In addition, in test [2], the “Hill Slope” value was -0.38 and the “HillSlope (GraphPad Prism best-fit, AMPK)” value is listed as -0.3757. The “LogEC50 (GraphPad Prism best-fit, AMPK), beyond top dose” value in test [2] (sigmoidal fit, extrapolated beyond 10 μM) was -4.728. Moreover, in test [2] (10 μM [33P]-ATP), the “inhibition of AMPK activity (in words)” value is recorded as “demonstrated AMPK inhibition”. Further, in test [3], the half-maximal effective concentration (EC50) was 4.92 µM; the IC50 is 4.92 µM; the “Hill Slope” value is -0.59; the “HillSlope (GraphPad Prism best-fit, GSK3β)” value is listed as -0.5892. The “LogEC50 (GraphPad Prism best-fit, GSK3β)” value in test [3] is listed as -5.308.

With `N#CCCc1ccc2c(c1)/C(=C/c1cc(CN3CCOCC3)c[nH]1)C(=O)N2` [Compound 14, (Z) 5-(2-cyanoethyl)-3-((4-(morpholinomethyl)-1H-pyrrol-2-yl)methylene)oxindole], in test [1] (setting [4]), the IC50 is 5.04e-06 M. Moreover, the concentration giving a half-maximal response (EC50) in test [1] (sigmoidal dose-response variable slope, Bottom = 0, read-out: EC50 (GraphPad Prism best-fit, % activity against AMPK)) amounted to 5.04e-06 M. In test [2], the “Hill Slope” value is -0.86; the “HillSlope (GraphPad Prism best-fit, AMPK)” value is given as -0.8552; the “LogEC50 (GraphPad Prism best-fit, AMPK)” value is given as -5.298. For the same compound, the “inhibition of AMPK activity (in words)” value in test [2] (10 μM [33P]-ATP) is given as “demonstrated AMPK inhibition”. Further, the IC50 in test [3] is > 10 µM. Further, the “inhibition of GSK3β kinase activity (in words)” value in test [3] (up to 10 μM, 10 μM [33P]-ATP) is listed as “did not show detectable GSK3β inhibition”.

With `c1cc(-c2cnn3cc(-c4ccc(OCCN5CCCCC5)cc4)cnc23)ccn1` [Compound C, dorsomorphin], in the test on cellular AMPK activity, the “concentration required to inhibit cellular AMPK activity” value was > 10 µM.

Regarding `Cn1cc(C2=C(c3cn(CCCSC(=N)N)c4ccccc34)C(=O)NC2=O)c2ccccc21` [RO-31-8220, reference compound], the “Hill Slope” value in test [2] was -0.77. In addition, the “% Activity (enzyme activity relative to DMSO controls)” value in test [2] (Ro-31-8220 Conc. 1.02E-09 M) was 91.37%; in test [2] (Ro-31-8220 Conc. 2.00E-05 M), 5.65%; in test [2] (Ro-31-8220 Conc. 2.22E-06 M), 9.47%; in test [2] (Ro-31-8220 Conc. 2.47E-07 M), 25.85%; in test [2] (Ro-31-8220 Conc. 2.74E-08 M), 71.55%; in test [2] (Ro-31-8220 Conc. 3.05E-09 M), 90.55%. For the same compound, the “% Activity (enzyme activity relative to DMSO controls)” value in test [2] (Ro-31-8220 Conc. 6.67E-06 M) is reported as 3.95%; in test [2] (Ro-31-8220 Conc. 7.41E-07 M) it was 12.59%; in test [2] (Ro-31-8220 Conc. 8.23E-08 M) it was 51.73%; in test [2] (Ro-31-8220 Conc. 9.14E-09 M) it was 78.23%. In addition, in test [2] (supplement kinase profiling report, 10 μM [33P]-ATP, read-out: IC50 (M) AMPK(A1/B1/G1)), the IC50 stood at 8.36e-08 M.

For the compound `CNC(=O)c1ccccc1Oc1nc(Nc2cc(OC)c(OC)c(OC)c2)ncc1Br` [SBI-0206965], the “concentration required to inhibit cellular AMPK activity” value in the test with cellular AMPK activity is > 10 µM.

For the compound `CCN(CC)CCNC(=O)c1c(C)[nH]c(/C=C2\C(=O)Nc3ccc(F)cc32)c1C` [Sunitinib, sunitinib, reference compound], in test [2], the “Hill Slope” value was -0.78; the “HillSlope (GraphPad Prism best-fit, AMPK)” value was -0.7785; the “LogEC50 (GraphPad Prism best-fit, AMPK)” value is listed as -7.395. In test [3], the “Hill Slope” value is -0.78 and the “HillSlope (GraphPad Prism best-fit, GSK3β)” value was -0.7769. For the same compound, in the test on cellular AMPK activity, the “concentration required to inhibit cellular AMPK activity” value is < 5 µM.
